Results published in patent US10610535B2 (The Regents of the University of California, priority 2005, dated 2020).

Tests used:
[1] = molecular target: ERβ as compared to ERα (Homo sapiens, UniProt Q92731); details: cited from earlier work
[2] = tested on: SJL mice with adoptive EAE; details: followed for the first 27 days; cited from earlier work
[3] = tested on: IFNγ in peripheral blood mononuclear cells (PBMCs); assay: IFNγ levels by RT-PCR of unstimulated PBMCs derived ex vivo; format: in vivo, human
Description: Peripheral blood mononuclear cells (PBMCs) were isolated from heparinized venous blood and cryopreserved. PBMCs were thawed in parallel from a given patient during the two pre-treatment timepoints and the two treatment timepoints. Total RNA was isolated, DNA was removed and mRNA was reverse transcribed. Both IFN-γ and actin were amplified from the same cDNA, however, the cDNA was diluted 1:9 prior to amplification for actin. Amplification was done in 1 mM […] using IFN.γ and actin primer sequences (Life Technologies, Rockville, Md.). Complementary DNA was amplified for 35 cycles: 45″ @ 95° C., 60″ @ 54° C. and 45″ @ 72° C. PCR products were separated on a 1.5% agarose gel containing ethidium bromide and densitometry performed.

[4] = tested on: peripheral blood mononuclear cells; details: pilot clinical trial, non-pregnant female MS patients; cited from earlier work
[5] = tested on: women with clinically definite MS; details: pilot clinical trial, non-pregnant female MS patients; cited from earlier work
[6] = tested on: women with clinically definite MS; assay: Tolerability and laboratory safety measures, estriol trial and extension phase; format: in vivo, human; details: oral estriol 8 milligrams/day
Description: Twelve female patients with clinically definite MS were enrolled. Six had RR disease and six had SP disease. All six RR and four of six SP patients completed the entire 18 month study period. […] Of the ten patients who completed the entire study, the mean age was 44 years (range 28 to 50 years) and the mean EDSS was 3.3 (range 1.0 to 6.5). The mean EDSS score for the SP patients was 5.0 while the mean EDSS for the RR patients was 2.2. The 18 month trial was extended in RR patients whereby treatment was re-instituted. Medication. For the initial treatment phase, micronized, U.S.P. graded estriol powder (Medisca, Inc., Plattsburg, N.Y.) was put into capsules by UCLA Pharmaceutical Services.
(§1) Subjects were evaluated using the Kurtzke's Expanded Disability Status Scale (EDSS) by the same neurologist (RV) throughout the study. At each visit the study nurse (RK) administered the paced auditory serial addition test (PASAT) and the 9-hole peg test. Blood was drawn for SMA12, cholesterol panel, blood counts and hormone levels (estriol, estradiol, estrone, LH, FSH, cortisol, progesterone). Estriol levels in serum were determined by ELISA according to manufacturer's instructions (Oxford Biomedical, Oxford, Mich.).
Indeed, estrogen cannot be given for a lengthy period of time in an “unopposed” fashion in any woman with a uterus. […]

[7] = tested on: women with clinically definite MS; assay: Clinical measures: EDSS, 9-hole peg test, PASAT, relapses; format: in vivo, human
Description: as §1

[8] = tested on: post-partum patient with relapsing remitting multiple sclerosis; assay: Case of post-partum relapsing remitting MS patient; format: in vivo, human
Description: A patient was diagnosed as having relapsing remitting multiple sclerosis. Following the delivery of their first child (now […]), the patient was treated only with Copaxone and relapsed at 6 weeks. Following the delivery of their second child (now […]), the patient was again treated with Copaxone alone and again relapsed, this time at 4.5 months. Following a subsequent pregnancy, the patient was treated with 8 mg estriol/day in an attempt to prevent their post partum relapses.
Following the birth of the patient's third child (now 6 months), the patient resumed treatment with Copaxone as before. However, on day 10 post-partum they began taking estriol 8 mg/daily in an oral dosage form. […] Since monthly brain MRIs with gadolinium to detect enhancing MS lesions are more sensitive for inflammatory disease activity than relapses, the patient underwent serial monthly MRIs at post partum months 4, 5, and 6.
The patient doubled the progesterone minipill for 2 weeks to stabilize the endometrium. Otherwise no adverse events have been reported.

[9] = tested on: EAE mice; details: cited from earlier work
[10] = tested on: DTH responses to tetanus and candida; set-up: species or system human; details: in vivo
[11] = tested on: women with clinically definite MS; assay: Serial cerebral MRI: gadolinium enhancing lesions and T2 lesion volumes
[12] = tested on: DTH responses to tetanus and candida; details: cited from earlier work
[13] = Serum estriol levels (ELISA) in oral estriol crossover trial; format: in vivo, human; details: oral estriol 8 milligrams/day, treatment and re-treatment, MS patients
Description: as §1

[14] = 90 day release pellets of 5 or 15 milligrams estriol
[15] = RR patients, first three months of treatment
[16] = RR patients, next three months of treatment

ERβ as compared to ERα, sequence (Q92731 whole entry): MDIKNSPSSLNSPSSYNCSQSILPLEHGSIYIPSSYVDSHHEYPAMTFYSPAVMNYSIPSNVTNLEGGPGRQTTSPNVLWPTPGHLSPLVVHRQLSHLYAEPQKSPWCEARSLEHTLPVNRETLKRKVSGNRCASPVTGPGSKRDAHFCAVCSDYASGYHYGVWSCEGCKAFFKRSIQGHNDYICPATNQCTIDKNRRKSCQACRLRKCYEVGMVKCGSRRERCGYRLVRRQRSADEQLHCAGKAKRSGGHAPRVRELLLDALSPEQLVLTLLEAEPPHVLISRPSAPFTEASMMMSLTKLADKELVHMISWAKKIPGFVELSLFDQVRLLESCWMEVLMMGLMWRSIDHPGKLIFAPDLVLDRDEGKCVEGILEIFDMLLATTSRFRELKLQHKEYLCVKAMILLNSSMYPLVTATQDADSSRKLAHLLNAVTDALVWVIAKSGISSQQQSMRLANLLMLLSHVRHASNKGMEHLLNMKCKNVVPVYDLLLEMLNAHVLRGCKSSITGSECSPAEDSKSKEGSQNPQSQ

## C=Cc1cc(O)cc2nc(-c3ccc(O)c(F)c3)oc12 [WAY-202041]
[1]
  Selectivity for ERβ as compared to ERα: 200 fold
[2]
  Effect in adoptive EAE: no effect

## C[C@]12CC[C@@H]3c4ccc(O)cc4CC[C@H]3[C@@H]1CC(O)C2O (some centres unmarked) [estriol, estra-1,3,5(10)-triene-3,16,17-triol]
[3]; four SP patients
  Levels of IFNγ: no decrease
[3]; six RR patients, study month 9 (three months of treatment) vs pretreatment
  Levels of IFNγ: variably decreased
[3]; six RR patients, study month 12 (six months of treatment) vs pretreatment
  Levels of IFNγ: significantly decreased
[4]
  TH2 (IL5, IL10) cytokine production by peripheral blood mononuclear cells: increased
  Th1 (TNFα, IFNγ) cytokine production by peripheral blood mononuclear cells: reduced
[5]
  Reduction of gadolinium-enhancing lesions on serial brain MRIs: > 80%
[6]
  Laboratory measures including LH, FSH, cortisol, progesterone, estradiol and estrone: no significant alterations
[6]; six months
  Tolerability: well tolerated with only menstrual cycle abnormalities
[7]; 4 RR, L, 9 mo., Estriol Treatment
  Hole Peg Test Score: 24.3
[7]; 4 RR, L, 12 mo., Estriol Treatment
  Hole Peg Test Score: 23.3
[7]; 4 RR, L, 15 mo., Post Treatment
  Hole Peg Test Score: 23.0
[7]; 4 RR, L, 18 mo., Post Treatment
  Hole Peg Test Score: 22.7
[7]; 4 RR, R, 9 mo., Estriol Treatment
  Hole Peg Test Score: 22.5
[7]; 4 RR, R, 12 mo., Estriol Treatment
  Hole Peg Test Score: 21.5
[7]; 4 RR, R, 15 mo., Post Treatment
  Hole Peg Test Score: 21.0
[7]; 4 RR, R, 18 mo., Post Treatment
  Hole Peg Test Score: 21.4
[7]; 4 SP, 9 mo., Estriol Treatment
  EDSS Scores: 4.9
[7]; 4 SP, 12 mo., Estriol Treatment
  EDSS Scores: 5.0
[7]; 4 SP, 15 mo., Post Treatment
  EDSS Scores: 5.1
[7]; 4 SP, 18 mo., Post Treatment
  EDSS Scores: 5.0
[7]; 4 SP, L, 9 mo., Estriol Treatment
  Hole Peg Test Score: 22.7
[7]; 4 SP, L, 12 mo., Estriol Treatment
  Hole Peg Test Score: 24.8
[7]; 4 SP, L, 15 mo., Post Treatment
  Hole Peg Test Score: 26.7
[7]; 4 SP, L, 18 mo., Post Treatment
  Hole Peg Test Score: 25.0
[7]; 4 SP, R, 9 mo., Estriol Treatment
  Hole Peg Test Score: 30.2
[7]; 4 SP, R, 12 mo., Estriol Treatment
  Hole Peg Test Score: 31.7
[7]; 4 SP, R, 15 mo., Post Treatment
  Hole Peg Test Score: 29.4
[7]; 4 SP, R, 18 mo., Post Treatment
  Hole Peg Test Score: 34.0
[7]; 6 RR, 9 mo., Estriol Treatment
  EDSS Scores: 1.5
[7]; 6 RR, 12 mo., Estriol Treatment
  EDSS Scores: 1.7
[7]; 6 RR, 15 mo., Post Treatment
  EDSS Scores: 1.8
[7]; 6 RR, 18 mo., Post Treatment
  EDSS Scores: 1.8
[7]; RR patients, during treatment as compared to baseline
  Improvement in PASAT scores: 14.0%
[7]; SP patients, whole study
  Relapses: No relapses
[7]; during the study
  EDSS and 9 Hole Peg Test scores: no significant changes
[7]; six RR patients, post treatment period
  Relapses: two
[7]; six RR patients, re-treatment period
  Relapses: none
[7]; six RR patients, treatment period
  Relapses: one
[8]; estriol 8 mg/daily oral from day 10 post-partum, with Copaxone, third child
  Post-partum relapses: no relapses for 6 months
[8]; estriol 8 mg/daily with Copaxone and norethindrone 0.35 mg daily
  Adverse events: increased irregular menstrual bleeding
[8]; estriol 8 mg/daily with Copaxone, 6 months post-partum
  EDSS: 1
[8]; month 3 and 6
  Uterine ultrasounds: thin, not thick, endometrium
[8]; post partum month 4, estriol with Copaxone
  Gadolinium enhancement on brain MRI: no enhancement
[8]; post partum month 5, estriol with Copaxone
  Gadolinium enhancement on brain MRI: only one small enhancing lesion
[8]; post partum month 6, estriol with Copaxone
  Gadolinium enhancement on brain MRI: No new enhancement
[8]; post partum months 4-6, estriol with Copaxone
  T2 lesion load: stable throughout
[9]; 90 day release pellets of 5 or 15 milligrams estriol, before or after disease onset
  EAE disease severity: reduced
[9]; [14]
  Inflammation and demyelination: reduced inflammation and demyelination
  Production of the Th2 cytokine IL-10: increase production
[9]; late pregnancy levels of estriol or supraphysiological doses of estradiol (5 times pregnancy levels)
  Onset of clinical EAE: delay the onset
[10]
  DTH responses to candida: decreased less dramatically and more variably
  DTH responses to tetanus: significantly, P=−0.006, decreased
[11]; RR group, four month re-treatment extension period
  Change in median T2 lesion volumes (lower): 2.0%
[11]; RR group, six month post treatment period
  Change in median T2 lesion volumes (higher): 7.4%
[11]; RR group, six month treatment period
  Change in median T2 lesion volumes: 0%
[11]; [15]
  Decrease in median total enhancing lesion numbers: 82%
  Decrease in median total enhancing lesion volumes: 79%
[11]; RR patients, last three months of the post treatment period
  Median total enhancing lesion volumes and numbers: returning to near baseline levels
[11]; [16]
  Decrease in median total enhancing lesion numbers: 82%
  Decrease in median total enhancing lesion volumes: 82%
[11]; all ten MS patients (6RR, 4SP), treatment period vs six month pretreatment baseline
  Total volume and number of enhancing lesions: decreased
[12]
  Delayed type hypersensitivity response (prototypic in vivo Th1 response): reduced
[13]
  Serum estriol levels: approximated those observed in women who were six months pregnant
